Patent US7465806B2, “Pyrrole-derivatives as factor Xa inhibitors” (SANOFI-AVENTIS Deutschland GmbH, priority 2004, dated 2008)

target: T1, human factor Xa (Homo sapiens, UniProt P00742); assay: Factor Xa chromogenic assay (inhibition of factor Xa activity); type: biochemical; conditions: inhibition constant for factor Xa; chromogenic substrate S-2765 140 μM, enzyme 0.5 nM, 25° C.; Ki calculated from IC50; read-out: Ki(FXa)
T1 construct: human factor Xa (Enzyme Research Laboratories, Inc; South Bend, Indiana); purchased Enzyme Research Laboratories, Inc; South Bend, Indiana
Procedure: The ability of the compounds of the formulae I and Ia to inhibit factor Xa or factor VIIa or other enzymes like thrombin, plasmin, or trypsin can be assessed by determining the concentration of the compound of the formulae I and Ia that inhibits enzyme activity by 50%, i.e. the IC50 value, which was related to the inhibition constant Ki. Purified enzymes were used in chromogenic assays. The concentration of inhibitor that causes a 50% decrease in the rate of substrate hydrolysis was determined by linear regression after plotting the relative rates of hydrolysis (compared to the uninhibited control) versus the log of the concentration of the compound of formulae I and Ia. For calculating the inhibition constant Ki, the IC50 value was corrected for competition with substrate using the formula Ki=IC50/{1+(substrate concentration/Km)} wherein Km is the Michaelis-Menten constant (Chen and Prusoff, Biochem. Pharmacol. 22 (1973), 3099-3108; I. H. Segal, Enzyme Kinetics, 1975, John Wiley & Sons, New York, 100-125; which were incorporated herein by reference). a) Factor Xa Assay
In the assay for determining the inhibition of factor Xa activity TBS-PEG buffer (50 mM Tris-HCl, pH 7.8,200 mM NaCl, 0.05% (w/v) PEG-8000, 0.02% (w/v) NaN3) was used. The IC50 was determined by combining in appropriate wells of a Costar half-area microtiter plate 25 μl human factor Xa (Enzyme Research Laboratories, Inc.; South Bend, Indiana) in TBS-PEG; 40 μl 10% (v/v) DMSO in TBS-PEG (uninhibited control) or various concentrations of the compound to be tested diluted in 10% (v/v) DMSO in TBS-PEG; and substrate S-2765 (N(α)-benzyloxycarbonyl-D-Arg-Gly-L-Arg-p-nitroanilide; Kabi Pharmacia, Inc.; Franklin, Ohio) in TBS-PEG.
The assay was performed by pre-incubating the compound of formulae I and Ia plus enzyme for 10 min. Then the assay was initiated by adding substrate to obtain a final volume of 100 μl. The initial velocity of chromogenic substrate hydrolysis was measured by the change in absorbance at 405 nm using a Bio-tek Instruments kinetic plate reader (Ceres UV900HDi) at 25° C. during the linear portion of the time course (usually 1.5 min after addition of substrate). The enzyme concentration was 0.5 nM and substrate concentration was 140 μM.

T1 sequence (P00742 235-488 limits assumed): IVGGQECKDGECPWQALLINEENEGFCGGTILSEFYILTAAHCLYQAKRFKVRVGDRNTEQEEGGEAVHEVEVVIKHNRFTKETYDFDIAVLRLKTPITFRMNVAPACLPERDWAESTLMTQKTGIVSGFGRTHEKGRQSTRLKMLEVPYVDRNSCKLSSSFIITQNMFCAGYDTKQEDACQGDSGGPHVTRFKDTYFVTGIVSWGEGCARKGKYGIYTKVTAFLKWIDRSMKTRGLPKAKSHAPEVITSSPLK
T1 sequence (P00742 41-179 partner limits assumed): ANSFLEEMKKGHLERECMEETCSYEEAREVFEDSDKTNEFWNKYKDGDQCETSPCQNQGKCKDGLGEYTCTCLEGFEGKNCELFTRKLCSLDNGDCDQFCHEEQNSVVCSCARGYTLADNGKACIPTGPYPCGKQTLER

| SMILES | Ki [µM] |
| --- | --- |
| CC(C)N1CCC(NC(=O)c2ccc(C(=O)N3CCCOCC3)n2Cc2cc(-c3ccc(Cl)s3)on2)CC1 [Example 7, 1-[5-(5-Chloro-thiophen-2-yl)-isoxazol-3-ylmethyl]-5-(perhydro-1,4-oxazepine-4-carbonyl)-1H-pyrrole-2-carboxylic acid (1-isopropyl-piperidin-4-yl)-amide] | 0.249 |
| Cc1c(Br)c(C)n(Cc2cc(-c3ccc(Cl)s3)on2)c1C(=O)NC1CCN(C(C)C)CC1 [Example 23, 4-Bromo-1-[5-(5-chloro-thiophen-2-yl)-isoxazol-3-ylmethyl]-3,5-dimethyl-1H-pyrrole-2-carboxylic acid (1-isopropyl-piperidin-4-yl)-amide] | 0.005 |
| CC(C)N1CCC(NC(=O)c2cc(C(=O)O)n(Cc3cc(-c4ccc(Cl)s4)on3)c2)CC1 [Example 17, 1-[5-(5-Chloro-thiophen-2-yl)-isoxazol-3-ylmethyl]-4-(1-isopropyl-piperidin-4-ylcarbamoyl)-1H-pyrrole-2-carboxylic acid] | 8.99 |
| CC(C)N1CCC(NC(=O)c2ccc(C(=O)OCc3ccccc3)n2Cc2cc(-c3ccc(Cl)s3)on2)CC1 [Example 9, 1-[5-(5-Chloro-thiophen-2-yl)-isoxazol-3-ylmethyl]-5-(1-isopropyl-piperidin-4-ylcarbamoyl)-1H-pyrrole-2-carboxylic acid benzyl ester] | 0.997 |
| COC(=O)c1cc(C(=O)NC2CCN(C(C)C)CC2)cn1CC(=O)Nc1ccc(Cl)cn1 [Example 15, 1-[(5-Chloro-pyridin-2-ylcarbamoyl)-methyl]-4-(1-isopropyl-piperidin-4-ylcarbamoyl)-1H-pyrrole-2-carboxylic acid methyl ester] | 41.3 |
| COCCN(C)C(=O)c1ccc(C(=O)NC2CCN(C(C)C)CC2)n1Cc1cc(-c2ccc(Cl)s2)on1 [Example 20, 1-[5-(5-Chloro-thiophen-2-yl)-isoxazol-3-ylmethyl]-1H-pyrrole-2,5-dicarboxylic acid 2-[(1-isopropyl-piperidin-4-yl)-amide] 5-[(2-methoxy-ethyl)-methyl-amide]] | 0.057 |
| CC(C)N1CCC(NC(=O)c2cc(C(=O)OCc3ccccc3)n(CC(=O)Nc3ccc(Cl)cn3)c2)CC1 [Example 12, 1-[(5-Chloro-pyridin-2-ylcarbamoyl)-methyl]-4-(1-isopropyl-piperidin-4-ylcarbamoyl)-1H-pyrrole-2-carboxylic acid benzyl ester] | 34.9 |
| Cc1c(C=O)c(C)n(Cc2cc(-c3ccc(Cl)s3)on2)c1C(=O)NC1CCN(C(C)C)CC1 [Example 25, 1-[5-(5-Chloro-thiophen-2-yl)-isoxazol-3-ylmethyl]-4-formyl-3,5-dimethyl-1H-pyrrole-2-carboxylic acid (1-isopropyl-piperidin-4-yl)-amide] | 0.024 |
| COC(=O)c1ccc(C(=O)NC2CCN(C(C)C)CC2)n1Cc1cc(-c2ccc(Cl)s2)on1 [Example 10, 1-[5-(5-Chloro-thiophen-2-yl)-isoxazol-3-ylmethyl]-5-(1-isopropyl-piperidin-4-ylcarbamoyl)-1H-pyrrole-2-carboxylic acid methyl ester] | 0.007 |
| CC(C)N1CCC(NC(=O)c2ccc(-c3ccccc3)n2Cc2cc(-c3ccc(Cl)s3)on2)CC1 [Example 21, 1-[5-(5-Chloro-thiophen-2-yl)-isoxazol-3-ylmethyl]-5-phenyl-1H-pyrrole-2-carboxylic acid (1-isopropyl-piperidin-4-yl)-amide] | 0.005 |
| Cc1c(Br)c(C)n(CC(=O)Nc2ccc(Cl)cn2)c1C(=O)NC1CCN(C(C)C)CC1 [Example 24, 4-Bromo-1-[(5-chloro-pyridin-2-ylcarbamoyl)-methyl]-3,5-dimethyl-1H-pyrrole-2-carboxylic acid (1-isopropyl-piperidin-4-yl)-amide] | 0.011 |
| COCCNC(=O)c1ccc(C(=O)NC2CCN(C(C)C)CC2)n1Cc1cc(-c2ccc(Cl)s2)on1 [Example 19, 1-[5-(5-Chloro-thiophen-2-yl)-isoxazol-3-ylmethyl]-1H-pyrrole-2,5-di carboxylic acid 2-[(1-isopropyl-piperidin-4-yl)-amide] 5-[(2-methoxy-ethyl)-amide]] | 0.088 |
| CC(C)N1CCC(NC(=O)c2ccc(C(=O)N3CCCOCC3)n2CC(=O)Nc2ccc(Cl)cn2)CC1 [Example 6, 1-[(5-Chloro-pyridin-2-ylcarbamoyl)-methyl]-5-(perhydro-1,4-oxazepine-4-carbonyl)-1H-pyrrole-2-carboxylic acid (1-isopropyl-piperidin-4-yl)-amide] | 0.902 |
| COC(=O)c1cc(C(=O)NC2CCN(C(C)C)CC2)cn1Cc1cc(-c2ccc(Cl)s2)on1 [Example 16, 1-[5-(5-Chloro-thiophen-2-yl)-isoxazol-3-ylmethyl]-4-(1-isopropyl-piperidin-4-ylcarbamoyl)-1H-pyrrole-2-carboxylic acid methyl ester] | 1.44 |
| CC(C)N1CCC(NC(=O)c2cc(C(=O)OCc3ccccc3)n(Cc3cc(-c4ccc(Cl)s4)on3)c2)CC1 [Example 13, 1-[5-(5-Chloro-thiophen-2-yl)-isoxazol-3-ylmethyl]-4-(1-isopropyl-piperidin-4-ylcarbamoyl)-1H-pyrrole-2-carboxylic acid benzyl ester] | 9.58 |
| COc1cccc(Cn2cccc2C(=O)NC2CCN(C(C)C)CC2)c1 [Example 2, 1-(3-Methoxy-benzyl)-1H-pyrrole-2-carboxylic acid (1-isopropyl-piperidin-4-yl)-amide] | 8.06 |
| Cc1c(S(=O)(=O)N2CCCOCC2)c(C)n(Cc2cc(-c3ccc(Cl)s3)on2)c1C(=O)NC1CCN(C(C)C)CC1 [Example 22, 1-[5-(5-Chloro-thiophen-2-yl)-isoxazol-3-ylmethyl]-3,5-dimethyl-4-(perhydro-1,4-oxazepine-4-sulfonyl)-1H-pyrrole-2-carboxylic acid (1-isopropyl-piperidin-4-yl)-amide] | 0.112 |
| Cc1c(CCC(=O)O)c(C)n(Cc2cc(-c3ccc(Cl)s3)on2)c1C(=O)NC1CCN(C(C)C)CC1 [Example 8, 3-[1-[5-(5-Chloro-thiophen-2-yl)-isoxazol-3-ylmethyl]-5-(1-isopropyl-piperidin-4-ylcarbamoyl)-2,4-dimethyl-1H-pyrrol-3-yl]-propionic acid] | 0.152 |
| CC(C)N1CCC(NC(=O)c2ccc(C(=O)O)n2Cc2cc(-c3ccc(Cl)s3)on2)CC1 [Example 11, 1-[5-(5-Chloro-thiophen-2-yl)-isoxazol-3-ylmethyl]-5-(1-isopropyl-piperidin-4-ylcarbamoyl)-1H-pyrrole-2-carboxylic acid] | 0.294 |
| CC(C)N1CCC(NC(=O)c2cccn2Cc2cc(-c3ccc(Cl)s3)on2)CC1 [Example 1, 1-[5-(5-Chloro-thiophen-2-yl)-isoxazol-3-ylmethyl]-1H-pyrrole-2-carboxylic acid (1-isopropyl-piperidin-4-yl)-amide] | 0.077 |
| CC(C)N1CCC(NC(=O)c2cc([N+](=O)[O-])cn2CC(=O)Nc2ccc(Cl)cn2)CC1 [Example 14, 1-[(5-Chloro-pyridin-2-ylcarbamoyl)-methyl]-4-nitro-1H-pyrrole-2-carboxylic acid (1-isopropyl-piperidin-4-yl)-amide] | 0.059 |
| CC(C)N1CCC(NC(=O)c2cc([N+](=O)[O-])cn2Cc2cc(-c3ccc(Cl)s3)on2)CC1 [Example 3, 1-[5-(5-Chloro-thiophen-2-yl)-isoxazol-3-ylmethyl]-4-nitro-1H-pyrrole-2-carboxylic acid (1-isopropyl-piperidin-4-yl)-amide] | 0.043 |
| CC(C)N1CCC(NC(=O)c2cc(C(=O)N3CCCOCC3)cn2CC(=O)Nc2ccc(Cl)cn2)CC1 [Example 5, 1-[(5-Chloro-pyridin-2-ylcarbamoyl)-methyl]-4-(perhydro-1,4-oxazepine-4-carbonyl)-1H-pyrrole-2-carboxylic acid (1-isopropyl-piperidin-4-yl)-amide] | 0.081 |
| Cc1cc(C)n(Cc2cc(-c3ccc(Cl)s3)on2)c1C(=O)NC1CCN(C(C)C)CC1 [Example 4, 1-[5-(5-Chloro-thiophen-2-yl)-isoxazol-3-ylmethyl]-3,5-dimethyl-1H-pyrrole-2-carboxylic acid (1-isopropyl-piperidin-4-yl)-amide] | 0.011 |
